According to BindingDB's records for doi:10.1016/s0960-894x(02)00831-4 (Currently Naeja Pharmaceutical, 2002):

Molecular target: Cathepsin S (Homo sapiens, UniProt P25774)
Assay: Inhibition of recombinant human cathepsin S

Cathepsin S, sequence (P25774 whole entry): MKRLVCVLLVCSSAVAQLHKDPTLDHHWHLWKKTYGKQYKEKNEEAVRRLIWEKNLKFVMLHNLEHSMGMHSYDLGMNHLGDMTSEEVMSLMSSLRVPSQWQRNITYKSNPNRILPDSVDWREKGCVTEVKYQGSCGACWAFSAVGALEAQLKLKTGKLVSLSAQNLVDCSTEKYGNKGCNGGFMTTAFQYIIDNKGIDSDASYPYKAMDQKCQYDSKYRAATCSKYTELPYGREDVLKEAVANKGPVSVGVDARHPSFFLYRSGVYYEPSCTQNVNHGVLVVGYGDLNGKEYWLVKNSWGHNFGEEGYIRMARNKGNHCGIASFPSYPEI

IC50: < 0.1 nM
Structure (SMILES): O=C(N[C@@H](Cc1ccccc1)C(=O)N[C@@H]1C(=O)N[C@@H]1Oc1ccccc1)OCc1ccccc1 [[(S)-1-((3S,4R)-2-Oxo-4-phenoxy-azetidin-3-ylcarbamoyl)-2-phenyl-ethyl]-carbamic acid benzyl ester]
